Source: publication PMC8249783, “A novel multikinase inhibitor SKLB‐YTH‐60 ameliorates inflammation and fibrosis in bleomycin‐induced lung fibrosis mouse models” (Cell Proliferation, 2021)

What was measured:
phosphorylation of FGFR1 = assay: Western blot of FGFR signalling in fibroblasts; type: cell-based; settings: 10 μmol·L^−1
Experimental: Samples of cells and mouse lung tissues were lysed in RIPA buffer with a protease and phosphatase inhibitors (Selleckchem). The protein concentrations in the cell lysate were measured by the Lowry method. Approximately 50 μg of total protein was separated by SDS‐PAGE and then transferred to polyvinylidene fluoride (PVDF) membranes (Amersham Bioscience). After the membranes incubation with the specific primary and secondary antibodies, the reactive bands were detected with enhanced chemiluminescent substrate to horseradish peroxidase.

A549 cells = assay: Wound healing assay; type: cell-based, human; settings: A549, combined with TGF‐β1 vs TGF‐β1 alone
Experimental: A549 cells (1 × 10^6 well^−1) were grown on 6‐well plates in 2 mL 10% FBS DMEM medium. Making a scratch with a sterile 200 μL microtube tip after 24 hours and the scratched cells were washed gently with serum‐free DMEM. Then, TGF‐β1 or YTH‐60 added to their corresponding wells and cultured for 24 hours. Each picture was imaged at three different locations. ImageJ software was used to estimate the percentage of the original width by measuring the width of the scratches.

LO2 cells = assay: Cytotoxicity in normal human liver cell line; type: cell-based; settings: 24 hours exposure
Experimental: The cell viability of YTH‐60 and Nintedanib treatment was performed by MTT and CCK8 assay. Briefly, the exponentially growing cells were seeded in 96‐well (2‐5 × 10^3 cells·well^−1) and cultured for 24 hours. The cells were treated with different concentrations of YTH‐60 (0, 0.625, 1.25, 2.5, 5, 10 µmol·L^−1), after treatment for 24, 48 and 72 hours, respectively, a volume of 20 μL of 5 mg·mL^−1 MTT solution or 10 μL CCK‐8 solution was added to each well and incubation for 2‐4 hours at 37°C. Finally, the 96‐well plates were read on Multiskan FC microplate spectrophotometer at 570 or 450 nm wavelength.

[1] = system: TNF‐α, IFN‐γ, IL‐2, IL‐4, IL‐10 and IL‐17A; assay: Serum cytokines in BLM mice (Th1/Th2/Th17 Cytokine Kit); type: in vivo, C57BL/6 mice; settings: day 14
Experimental: (§1) Male C57BL/6 mice (8‐10 weeks old) were purchased from HFK Bioscience Co. Ltd. All animal experiments were permitted by the Institutional Animal Care and Treatment Committee of Sichuan University in China (New Permit Number: 20190524003). Lung fibrosis was induced using BLM treatment (2 mg·kg^−1). All C57BL/6 mice were divided into five groups (n = 10): a BLM + Nintedanib group (Nintedanib, 30 mg·kg^−1), a BLM + YTH‐60 group (YTH‐60, 15 mg·kg^−1 and 30 mg·kg^−1), a control group (Sham), and a bleomycin group (Vehicle). At the beginning, the mice were anaesthetized using 10% chloral hydrate, dissolved BLM with saline and administered intratracheally. To evaluate the preventive effect, the next day after BLM challenge, YTH‐60 and Nintedanib were administered intraperitoneally daily for 13 days (fibroproliferation) to the mice. All mice were sacrificed 24 hours after the last drug injection, the lungs and other organs were taken for the subsequent analysis. To test the therapeutic effect, after the 7th day of BLM treatment, mice were injected intraperitoneally with YTH‐60, Nintedanib and vehicle daily for 7 consecutive days (fibroproliferation).
IL‐2, IL‐4, IL‐10, IL‐17A, TNF‐α and IFN‐γ levels in mouse serum were determined using a mouse Th1/Th2/Th17 Cytokine Kit (BD Biosciences) according to the manufacturer's instructions. […]

[2] = system: infiltrating inflammatory cells in BALF; assay: Bronchoalveolar lavage fluid cell count in BLM mice; type: in vivo, C57BL/6 mice; settings: 30 mg·kg^−1, day 14
Experimental: as §1
After the animals were anaesthetized, rinsing the lungs with 1 mL of normal saline three times and collected bronchoalveolar lavage fluid. The total living cell count was performed by an ADVIA 2120i.

For `COc1cc(OC)c(Cl)c(-c2ccc3c(/C=C/c4ccc(N(C)C(=O)CN5CCN(C)CC5)cc4)n[nH]c3c2)c1Cl` [YTH‐60, (E)‐N‐(4‐(2‐(6‐(2,6‐dichloro‐3,5‐dimethoxyphenyl)‐1H‐indazol‐3‐yl)vinyl)phenyl)‐N‐methyl‐2‐(4‐methylpiperazin‐1‐yl)acetamide], the “phosphorylation of FGFR1 (in words)” value (phosphorylation of FGFR1) was “inhibited the phosphorylation of FGFR1”, the “cell migration (in words)” value (A549 cells) was “significantly inhibited cell migration” and the “cytotoxicity, viability of LO2 cells (in words)” value (LO2 cells) was “inhibited the viability of LO2 cells less than Nintedanib”. The “inflammatory cytokines in serum (in words)” value [1] was “reduced the expression level of these inflammatory cytokines” and the “infiltrating inflammatory cells in BALF (in words)” value [2] was “significantly reduce the number of infiltrating inflammatory cells”.
